The text below walks through data of ChEMBL document CHEMBL4371002 (J Med Chem, 2018).

Broadly, the fraction unbound is free concentration divided by total concentration. A low value points to little free substance. The EC50 is the concentration needed to bring the measured effect to its halfway point. Read a high EC50 as a need for much substance. The term IC50 denotes the concentration that inhibits the measured activity by half. Usually Ki stands for a dissociation constant, usually derived from enzyme kinetics or from competition with a known ligand. Read a high Ki as lower affinity.

One data set is described as follows: in vitro. To be noted: plasma.
For data set [1], the target named is Tyrosine-protein phosphatase non-receptor type 1 (Homo sapiens, UniProt P18031). Format: cell-based, Sf9.
Chain of Tyrosine-protein phosphatase non-receptor type 1 (P18031 whole entry): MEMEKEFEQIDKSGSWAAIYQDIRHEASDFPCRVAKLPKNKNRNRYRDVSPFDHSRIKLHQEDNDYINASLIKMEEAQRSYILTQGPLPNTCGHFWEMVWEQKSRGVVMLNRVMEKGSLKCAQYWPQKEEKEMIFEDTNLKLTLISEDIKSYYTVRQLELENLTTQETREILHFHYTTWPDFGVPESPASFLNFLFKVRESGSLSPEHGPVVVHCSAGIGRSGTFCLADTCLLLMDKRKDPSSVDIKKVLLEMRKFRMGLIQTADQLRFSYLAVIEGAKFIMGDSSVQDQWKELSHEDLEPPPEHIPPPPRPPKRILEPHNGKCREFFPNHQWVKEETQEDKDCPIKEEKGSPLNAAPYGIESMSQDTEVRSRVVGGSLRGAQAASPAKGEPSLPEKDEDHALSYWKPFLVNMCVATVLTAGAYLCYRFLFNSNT
Data set [2] addresses T1, 3-oxo-5-alpha-steroid 4-dehydrogenase 1 (Homo sapiens, UniProt P18405).
T1 sequence (P18405 whole entry): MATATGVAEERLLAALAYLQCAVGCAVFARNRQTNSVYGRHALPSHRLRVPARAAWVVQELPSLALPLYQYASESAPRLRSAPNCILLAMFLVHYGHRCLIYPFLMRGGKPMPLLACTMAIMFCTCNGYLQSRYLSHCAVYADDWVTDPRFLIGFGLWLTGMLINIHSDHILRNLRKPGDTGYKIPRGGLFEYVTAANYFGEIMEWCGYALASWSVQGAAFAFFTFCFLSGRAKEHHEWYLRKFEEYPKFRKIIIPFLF

Data set [3] deals with T1, 3-oxo-5-alpha-steroid 4-dehydrogenase 1. The source holds these as a separate data set.
In data set [4] the target is T2, 3-oxo-5-alpha-steroid 4-dehydrogenase 1 (Rattus norvegicus, UniProt P24008).
T2 sequence (P24008 whole entry): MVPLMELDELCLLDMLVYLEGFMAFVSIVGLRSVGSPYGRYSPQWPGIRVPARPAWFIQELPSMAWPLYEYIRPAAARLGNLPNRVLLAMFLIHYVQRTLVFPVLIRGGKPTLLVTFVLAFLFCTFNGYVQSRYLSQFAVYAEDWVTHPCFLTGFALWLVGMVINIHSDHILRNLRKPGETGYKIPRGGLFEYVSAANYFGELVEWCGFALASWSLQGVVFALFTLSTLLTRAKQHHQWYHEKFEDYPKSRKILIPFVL

In data set [5] the target is T3, 3-oxo-5-alpha-steroid 4-dehydrogenase 2 (Rattus norvegicus, UniProt P31214).
T3 sequence (P31214 whole entry): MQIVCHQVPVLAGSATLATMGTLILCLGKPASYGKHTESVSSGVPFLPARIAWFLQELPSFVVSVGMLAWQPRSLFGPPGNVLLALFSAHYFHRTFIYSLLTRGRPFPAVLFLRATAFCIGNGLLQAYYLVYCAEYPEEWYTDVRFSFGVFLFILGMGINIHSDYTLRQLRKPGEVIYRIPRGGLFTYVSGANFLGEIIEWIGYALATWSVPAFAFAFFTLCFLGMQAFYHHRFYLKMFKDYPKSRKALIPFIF

The subject of a further data set is T47D. Kind of data set: cells. It counts as functional, cell-based. To be noted: Homo sapiens.
Data set [6] concerns the target Peptidyl-prolyl cis-trans isomerase FKBP1A (Homo sapiens, UniProt P62942). Kind of data set: biochemical. Format: cell-based.
Data set [7] concerns the target T1, 3-oxo-5-alpha-steroid 4-dehydrogenase 1. It counts as cell-based, HEK293.
The target of data set [8] is T4, 3-oxo-5-alpha-steroid 4-dehydrogenase 2 (Homo sapiens, UniProt P31213).
T4 sequence (P31213 whole entry): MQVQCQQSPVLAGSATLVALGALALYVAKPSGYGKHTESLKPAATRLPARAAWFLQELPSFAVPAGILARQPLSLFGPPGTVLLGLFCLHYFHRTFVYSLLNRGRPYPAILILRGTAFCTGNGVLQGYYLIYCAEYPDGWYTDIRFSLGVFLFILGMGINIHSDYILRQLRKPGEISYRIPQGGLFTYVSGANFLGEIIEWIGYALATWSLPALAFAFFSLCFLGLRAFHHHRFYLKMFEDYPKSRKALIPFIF

The target in data set [9] is T4, 3-oxo-5-alpha-steroid 4-dehydrogenase 2. This is another data set of the same source.
For data set [10], the target named is T5, Steryl-sulfatase (Homo sapiens, UniProt P08842).
T5 sequence (P08842 whole entry): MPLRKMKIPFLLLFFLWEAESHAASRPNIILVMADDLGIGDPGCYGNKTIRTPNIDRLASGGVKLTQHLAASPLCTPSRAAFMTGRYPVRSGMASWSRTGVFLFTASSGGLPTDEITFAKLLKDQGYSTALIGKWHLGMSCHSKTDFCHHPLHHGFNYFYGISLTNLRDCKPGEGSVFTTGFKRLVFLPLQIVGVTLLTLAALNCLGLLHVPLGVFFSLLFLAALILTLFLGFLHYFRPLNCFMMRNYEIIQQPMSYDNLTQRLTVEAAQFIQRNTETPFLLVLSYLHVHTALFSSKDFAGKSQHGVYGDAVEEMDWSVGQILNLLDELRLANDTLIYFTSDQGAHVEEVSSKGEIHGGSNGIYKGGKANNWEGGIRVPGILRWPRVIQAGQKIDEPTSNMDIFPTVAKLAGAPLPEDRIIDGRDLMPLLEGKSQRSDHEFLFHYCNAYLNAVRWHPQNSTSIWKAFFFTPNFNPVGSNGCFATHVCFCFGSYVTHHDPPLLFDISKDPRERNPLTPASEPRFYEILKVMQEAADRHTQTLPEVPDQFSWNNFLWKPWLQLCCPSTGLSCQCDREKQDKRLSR

Data set [11] has as its target T5, Steryl-sulfatase. The source holds these as a separate data set.
The target in data set [12] is T4, 3-oxo-5-alpha-steroid 4-dehydrogenase 2. It counts as cell-based, HEK293.

Chain of Peptidyl-prolyl cis-trans isomerase FKBP1A (P62942 whole entry): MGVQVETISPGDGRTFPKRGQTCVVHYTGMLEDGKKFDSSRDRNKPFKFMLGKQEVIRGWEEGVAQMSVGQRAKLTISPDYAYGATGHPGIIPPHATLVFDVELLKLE

For `Cc1cn2c(C(=O)NCc3ccc(S(F)(F)(F)(F)F)cc3)c(C)nc2s1`, the fraction unbound in the data set “in vitro” was 0.003.

`O=C(c1ccccc1)C(Cc1ccc(C(F)(F)P(=O)(O)O)c(Br)c1)c1ccccc1` (stereo unspecified) had an EC50 in [1] of 1200 nM.

For `C[C@]12C=CC(=O)N[C@@H]1CC[C@@H]1[C@@H]2CC[C@]2(C)[C@@H](C(=O)NC(c3ccccc3)(C(F)(F)F)C(F)(F)F)CC[C@@H]12`, the IC50 amounted to 3.9 nM in [2], 20 nM in data set [3], 34 nM in [4] and 34 nM in data set [5].

Regarding `O=C1Nc2ccc(S(F)(F)(F)(F)F)cc2/C1=C/c1ccc[nH]1`, the EC50 with T47D amounted to 490 nM.

For `COc1cc(C(=O)C(=O)N2CCC[C@H]2C(=O)OCCCc2cccnc2)cc(OC)c1OC`, the Ki in [6] amounted to 4000 nM.

As to `CC(NC(=O)[C@H]1CC[C@H]2[C@@H]3CC[C@H]4NC(=O)C=C[C@]4(C)[C@H]3CC[C@]12C)(c1ccccc1)C(F)(F)F` (stereo partly specified), the IC50 in data set [2] was 36 nM; in data set [3], 16 nM; in data set [4], 15 nM; in [5], 15 nM.

Turning to `CC(C)(C)NC(=O)[C@H]1CC[C@H]2[C@@H]3CC[C@H]4NC(=O)C=C[C@]4(C)[C@H]3CC[C@]12C` [FINASTERIDE], the IC50 is 650 nM in [7]; 150 to 470 nM in data set [2]; 0.18 to 11.3 nM in [8]; 58 nM in data set [9]; 30 nM in data set [4]; 32 nM in data set [5].

In the data set “in vitro”, `Cc1cn2c(C(=O)NCc3ccc(C(F)(F)F)cc3)c(C)nc2s1` showed a fraction unbound of 0.009.

In the data set on T47D, `O=C1Nc2cc(S(F)(F)(F)(F)F)ccc2/C1=C/c1ccc[nH]1` displayed an EC50 of 350 nM.

Turning to `C[C@]12CC[C@@H]3c4ccc(C(F)(F)S(N)(=O)=O)cc4CC[C@H]3[C@@H]1CCC2=O`, the Ki on Steryl-sulfatase [10] was found to be 82000 nM; at Steryl-sulfatase [11] it was 28000 nM.

With `C[C@]12CC[C@@H]3c4ccc(C(F)(F)S(=O)(=O)O)cc4CC[C@H]3[C@@H]1CCC2=O`, the figures for the Ki at Steryl-sulfatase [10] and at Steryl-sulfatase [11] were 73000 nM and 147000 nM, respectively.

As to `CC(C)(C)NC(=O)[C@H]1CC[C@H]2[C@@H]3CC=C4C=C(F)CC[C@]4(C)[C@H]3CC[C@]12C`, the figures for the concentration for half-maximal inhibition (IC50) in [12] and in data set [7] were 480 nM and 1300 nM, respectively.
